{"source": "patent US20210341371A1", "about": "“CELL SCANNING TECHNOLOGIES AND METHODS OF USE THEREOF” (priority 2018, published 2021)", "key": {"[1]": {"system": "RBC membrane permeability", "assay_type": "cell-based, human", "text": "The present disclosure also provides technologies for assessing (e.g., identifying and/or characterizing) agents and/or other compositions that modulate RBC membrane permeability (collectively, “RBC Permeability Modulating Agents”). Provided technologies may be useful for identifying RBC Permeability Modulating Agents. In some instances, a RBC Permeability Modulating Agent is expected to effect the health state of a subject exposed it (e.g., a beneficial or adverse effect). For example, provided methods allow for the evaluation of agents and/or compositions intended for use in humans (e.g., a drug candidate or prosthetic material).\nIn some embodiments, a sample is analyzed within a particular time period after being subjected to an agent or composition (e.g., within about 5 minutes, about 10 minutes, about 30 minutes, about 1 hour, about 2 hours, or about 5 hours). In some embodiments, a method further comprises evaluating dose response of an agent or composition (e.g., by subjecting each of a plurality of samples to varying concentrations of agent or composition).\n(§1) A sample of whole blood from a healthy volunteer was drawn into ACD anticoagulant. The unwashed sample was divided into aliquots and was analyzed using the Prior Shine Technology and/or the Provided Cell Scanning Technologies. The following outputs were obtained from the sample:\n“Pk0” coincided with the minimum absolute osmotic pressure (e.g., most hypotonic pressure) to which a cell can be subjected without loss of integrity. Pk0 can be identified by determining the right-most extent of the intact cell population in the cell-by-cell graph, i.e., the point of osmolality immediately preceding the point at which the cells ruptured. In FIG. 1a, this minimum pressure is the “peak” 106. […]\nUsing the technologies described herein, a cell-by-cell analysis was converted into a plot of percent change of cell volume vs. osmolality (“Cell Scan Plot”) by converting the individual peak voltage into a cell volume, then calculating a mean volume for each 100 cells, and plotting the means to generate the Cell Scan Plot. The percentage change of cell volume at each osmolality is calculated and compared to the mean cell volume of an isotonic cell (e.g., FIG. 1b). […]\nThe Fluid Flux Curve (FFC) was determined by taking the first order derivative (with respect to osmolality) of Cell Scan Plot (FIG. 1c). […]\nUsing the technologies provided herein, agents were tested for potential adverse in vivo effects prior to use in humans and/or animals. For example, a blood sample from a healthy volunteer was contacted with amphotericin B (0.5 μg/mL) and was analyzed using the provided cell scanning technologies. […]"}, "[2]": {"system": "RBC membrane permeability", "experiment": "Cell scan of blood samples from patients/subjects (RBC membrane permeability parameters), including effect of medication taken", "assay_type": "in vivo, human", "settings": "for effect of medication on the output of the cell scanning technologies: medication the subject has taken or is taking", "text": "The present disclosure encompasses the recognition that one or more medications that the subject has taken or is taking may affect the output of the cell scanning technologies described herein. The effect of a particular medication on the output of the cell scanning technologies may vary by medication, e.g., vary in magnitude and/or in length of effect, and in some cases, a particular medication may have no effect at all. […] Accordingly, in some embodiments, provided methods further comprise determining whether or not the subject has taken or is taking a particular medication. In some embodiments, if the subject has taken a medication known to have a particular effect on the output of the cell scanning technologies, then a determined RBC membrane permeability parameter should be compared to a suitable reference control parameter (e.g., a reference control parameter determined in the presence or absence of the particular medication). In some embodiments, if the subject has taken a medication known to have a particular effect on the output of the cell scanning technologies, then further diagnostic assessment is warranted.\nas §1\n“Pk0” coincided with the minimum absolute osmotic pressure (e.g., most hypotonic pressure) to which a cell can be subjected without loss of integrity. Pk0 can be identified by determining the right-most extent of the intact cell population in the cell-by-cell graph, i.e., the point of osmolality immediately preceding the point at which the cells ruptured. In FIG. 1a, this minimum pressure is the “peak” 106. As the osmolality of the surrounding solution was reduced, the red blood cell ruptures and forms a ghost cell, which releases its contents into the surrounding medium.\nUsing the technologies described herein, a cell-by-cell analysis was converted into a plot of percent change of cell volume vs. osmolality (“Cell Scan Plot”) by converting the individual peak voltage into a cell volume, then calculating a mean volume for each 100 cells, and plotting the means to generate the Cell Scan Plot. The percentage change of cell volume at each osmolality is calculated and compared to the mean cell volume of an isotonic cell (e.g., FIG. 1b). On such a plot, Pk0 (see 101) is the osmotic pressure at which the net water flow is zero (i.e., when a cell achieved its maximum volume, i.e., when it is a perfect sphere). As described herein, in some embodiments, Pk0 can be used as an indicator of an individual's health status.\nThe Fluid Flux Curve (FFC) was determined by taking the first order derivative (with respect to osmolality) of Cell Scan Plot (FIG. 1c). In an FFC, Pk0 occurred at the zero crossing (101), which was where the slope of the Cell Scan Plot changes from positive to negative. A positive value on the FFC represented a net flow of fluid into the cell, while negative rates represented a net flow of fluid out of the cell. In the FFC, the positive peak 102 and negative peak 103 corresponded to the maximum and minimum, respectively, on the FFC. As used herein, “Pymax” is the magnitude of fluid flux at the maximum, and “Pymin” is the magnitude of fluid flux at the minimum.\nTable 7 is organized by indication and reports the mean values for various parameters tested.\nA person was tested using cell scanning technologies described herein at a check-up 2 months after being diagnosed with grand mal epilepsy. The results were within normal limits (as they were on a prior visit), except for the Pk0 which had shifted approx. 10 mOsm/kg to 136 mOsm/kg. Such a change may be attributed to their prescribed medication, phenytoin."}}, "note": "Read-outs that look alike come from different tables or passages of the source.", "data": [{"smiles": "[Cl][Hg][Cl]", "note": "[HgCl2]", "values": [{"measurement": "flow of water across the membrane", "setting": "[1]; unwashed whole blood from a healthy volunteer treated with 65 μM HgCl2", "result": "no flow of water across the membrane was detected"}, {"measurement": "RBC membrane permeability", "setting": "[1]; unwashed whole blood from a healthy volunteer treated with 65 μM HgCl2, monitored over time", "result": "essentially eliminated"}]}, {"smiles": "C[C@@H]1[C@H](O)[C@@H](C)/C=C/C=C/C=C/C=C/C=C/C=C/C=C/[C@H](O[C@@H]2O[C@H](C)[C@@H](O)[C@H](N)[C@@H]2O)C[C@@H]2O[C@](O)(C[C@@H](O)C[C@@H](O)[C@H](O)CC[C@@H](O)C[C@@H](O)CC(=O)O[C@H]1C)C[C@H](O)[C@H]2C(=O)O", "note": "[amphotericin B]", "values": [{"measurement": "effect of medication on the output of the cell scanning technologies", "setting": "[2]", "result": "have an effect on the output"}, {"measurement": "Pk0", "setting": "[1]; blood sample from a healthy volunteer contacted with amphotericin B 0.5 μg/mL, normal Pk0 approx. 142 mOsm/kg", "result": 85, "unit": "mOsm/kg"}]}, {"smiles": "OCCS", "note": "[beta-mercaptoethanol]", "values": [{"measurement": "effect of HgCl2 on RBC membrane permeability after addition of chelator", "setting": "[1]", "result": "the effect was reversed and RBC membrane permeability was restored"}]}, {"smiles": "CC(C)(S)[C@@H](N)C(=O)O", "note": "[penicillamine]", "values": [{"measurement": "effect of medication on the output of the cell scanning technologies", "setting": "[2]", "result": "have an effect on the output"}]}, {"smiles": "CCC1(c2ccccc2)C(=O)NC(=O)NC1=O", "note": "[phenobarbitone]", "values": [{"measurement": "effect of medication on the output of the cell scanning technologies", "setting": "[2]", "result": "have an effect on the output"}]}, {"smiles": "O=C1NC(=O)C(c2ccccc2)(c2ccccc2)N1", "note": "[phenytoin]", "values": [{"measurement": "shift of Pk0 versus prior visit", "setting": "[2]; Patient X on prescribed phenytoin, change may be attributed to the medication", "result": "approx. 10 mOsm/kg"}, {"measurement": "Pk0", "setting": "[2]; Patient X, person with grand mal epilepsy, 2 months after diagnosis, on prescribed phenytoin, change may be attributed to the medication", "result": 136, "unit": "mOsm/kg"}, {"measurement": "effect of medication on the output of the cell scanning technologies", "setting": "[2]", "result": "have an effect on the output"}]}, {"smiles": "CC(=O)CC(c1ccccc1)c1c(O)c2ccccc2oc1=O", "note": "(stereo not drawn) [warfarin]", "values": [{"measurement": "P0 (TOTAL)", "setting": "[2]; mean value for patients with pulmonary embolus on warfarin, all patients (N=4)", "result": 149.4}, {"measurement": "P0 (died)", "setting": "[2]; mean value for patients with pulmonary embolus on warfarin, subset who died (N=1)", "result": 157}]}]}
